The term Ki denotes a dissociation constant, usually derived from enzyme kinetics or from competition with a known ligand. The low end stands for tighter binding, the high end for weaker binding.

The source of these data is US6989385B2, “Pyrazole compounds useful as protein kinase inhibitors” (Vertex Pharmaceuticals Incorporated, priority 2000, dated 2006).

This assay concerns the target T1, Aurora-2 (Homo sapiens, UniProt O14965).
T1 sequence (O14965 1-403): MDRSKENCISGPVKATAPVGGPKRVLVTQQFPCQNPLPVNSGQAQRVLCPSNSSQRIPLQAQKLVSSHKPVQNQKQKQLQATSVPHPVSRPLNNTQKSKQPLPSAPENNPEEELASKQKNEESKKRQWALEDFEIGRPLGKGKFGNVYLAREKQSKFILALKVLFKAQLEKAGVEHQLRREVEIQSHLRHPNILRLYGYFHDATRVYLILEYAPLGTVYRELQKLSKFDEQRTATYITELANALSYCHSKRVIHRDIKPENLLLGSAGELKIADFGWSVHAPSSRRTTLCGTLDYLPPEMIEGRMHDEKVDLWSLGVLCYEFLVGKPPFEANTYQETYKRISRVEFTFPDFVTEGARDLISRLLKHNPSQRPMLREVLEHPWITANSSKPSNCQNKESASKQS
As to the kind of experiment: Ki determination for the inhibition of Aurora-2 (coupled enzyme assay). Format: biochemical. Particulars: 70 nM Aurora-2, 30° C. The procedure: To an assay stock buffer solution containing 0.1 M HEPES 7.5, 10 mM MgCl2, 1 mM DTT, 25 mM NaCl, 2.5 mM phosphoenolpyruvate, […], 30 mg/ml pyruvate kinase, 10 mg/ml lactate dehydrogenase, 40 mM ATP, and 800 μM peptide (LRRASLG, American Peptide, Sunnyvale, Calif.) was added a DMSO solution of a compound of the present invention to a final concentration of 30 μM. The resulting mixture was incubated at 30° C. for 10 min. The reaction was initiated by the addition of 10 μL of Aurora-2 stock solution to give a final concentration of 70 nM in the assay. […] The Ki values were determined from the rate data as a function of inhibitor concentration.

`Cc1cc(Nc2cc(C)[nH]n2)nc(C(C)(C)c2ccccc2)n1` [IIId-20] yielded a Ki of 100 to 1000 nM.
